Experimental data reported in ChEMBL document CHEMBL1201862, “PubChem BioAssay data set” (2004).
“And” between values parts separate entries of the source, which are not always exact repeats. Equal values may be shown once.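 Growth conditions: 96-well plates. Treatment: test compound, 48 hours, 5 concentrations. Analysis: linear interpolation between bracketing concentrations; unreached endpoints set to highest concentration. GI50 = concentration required for 50% inhibition of growth.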 The source made the active and inactive calls. No stated cut-off is given here; in the data, active = GI50 up to about 1.1 µM and inactive = higher.

What was measured:
Assay in all cases: NCI tumour cell line growth inhibition, 48 h
[1] = tested on: NCI-H23
[2] = tested on: SNB-75
[3] = tested on: UACC-62
[4] = tested on: K562
[5] = tested on: TK-10
[6] = tested on: COLO 205
[7] = tested on: SW-620
[8] = tested on: OVCAR-8
[9] = tested on: KM12
[10] = tested on: SK-MEL-28
[11] = tested on: SNB-19
[12] = tested on: HCT-116
[13] = tested on: MOLT-4
[14] = tested on: RPMI-8226
[15] = tested on: HOP-92
[16] = tested on: UO-31
[17] = tested on: RXF 393
[18] = tested on: U-251
[19] = tested on: SN12C
[20] = tested on: SF-268

SMILES | GI50 [1] | GI50 [2] | GI50 [3] | GI50 [4] | GI50 [5] | GI50 [6] | GI50 [7] | GI50 [8] | GI50 [9] | GI50 [10] | GI50 [11] | GI50 [12] | GI50 [13] | GI50 [14] | GI50 [15] | GI50 [16] | GI50 [17] | GI50 [18] | GI50 [19] | GI50 [20]
CCn1c2ccccc2c2cc(NC(=O)c3c(C)[nH]c(=O)[nH]c3=S)ccc21 | 38 µM (inactive) | > 100 µM (inactive) | 31.9 µM (inactive) | 28.8 µM (inactive) | 53.6 µM (inactive) | 22.9 µM (inactive) | 31.7 µM (inactive) | > 100 µM (inactive) | 18.5 µM (inactive) | 33.3 µM (inactive) | 49.1 µM (inactive) | 43.3 µM (inactive) | 24.3 µM (inactive) | 40.6 µM (inactive) | > 100 µM (inactive) | 51.3 µM (inactive) | 35.6 µM (inactive) | 31.5 µM (inactive) | 69 µM (inactive) | 
C1CCC(OC2CSC2)OC1 (configuration not stated) | > 100 µM (inactive) | > 100 µM (inactive) |  | > 100 µM (inactive) | > 100 µM (inactive) | > 100 µM (inactive) | > 100 µM (inactive) | > 100 µM (inactive) | > 100 µM (inactive) | > 100 µM (inactive) | > 100 µM (inactive) | > 100 µM (inactive) | > 100 µM (inactive) |  | > 100 µM (inactive) | > 100 µM (inactive) | > 100 µM (inactive) | > 100 µM (inactive) | > 100 µM (inactive) | > 100 µM (inactive)
CCc1cc(=O)n(/C(C)=C/c2ccccc2)n1C | > 100 µM (inactive) | > 100 µM (inactive) | > 100 µM (inactive) | > 100 µM (inactive) | > 100 µM (inactive) | > 100 µM (inactive) | > 100 µM (inactive) | > 100 µM (inactive) | > 100 µM (inactive) | > 100 µM (inactive) | > 100 µM (inactive) | > 100 µM (inactive) | > 100 µM (inactive) | > 100 µM (inactive) | > 100 µM (inactive) | > 100 µM (inactive) | > 100 µM (inactive) | > 100 µM (inactive) | > 100 µM (inactive) | > 100 µM (inactive)
CC1=C(C)Cc2c(O)ccc(O)c2C1 | 27.9 µM (inactive) | 16.2 µM (inactive) | 16.5 µM (inactive) | 18.8 µM (inactive) | 20.7 µM (inactive) | 20.4 µM (inactive) | 18.3 µM (inactive) | 16.1 µM (inactive) | 31.3 µM (inactive) | 12 µM (inactive) | > 100 µM (inactive) | 15.9 µM (inactive) | 19.3 µM (inactive) | 6 µM (inactive) | 19.7 µM (inactive) | 16.9 µM (inactive) | 15.9 µM (inactive) | 16.6 µM (inactive) | 21.8 µM (inactive) | 15.5 µM (inactive)
CCCCCCCC/C=C\CCCCCCCCCCCC(=O)O [ERUCIC ACID] | 25.5 µM (inactive) | 37 µM (inactive) | 27.5 µM (inactive) | 22.1 µM (inactive) |  | 20.2 µM (inactive) | 31.6 µM (inactive) | 37.2 µM (inactive) | 22.3 µM (inactive) | 32.7 µM (inactive) | 30.8 µM (inactive) | 22.3 µM (inactive) | 37.3 µM (inactive) | 45.6 µM (inactive) | 38.9 µM (inactive) | 74 µM (inactive) | 8.02 µM (inactive) | 37.9 µM (inactive) | 32.6 µM (inactive) | 52.4 µM (inactive)
CCNc1nnc(-c2nsc3ccccc23)s1 | 45.5 µM (inactive) | 8.83 µM (inactive) | > 100 µM (inactive) | > 100 µM (inactive) | > 100 µM (inactive) | > 100 µM (inactive) | > 100 µM (inactive) | 57.8 µM (inactive) | 59.7 µM (inactive) | 88.3 µM (inactive) | 16.3 µM (inactive) | 24.7 µM (inactive) | > 100 µM (inactive) | 65.3 µM (inactive) | > 100 µM (inactive) | 24.8 µM (inactive) | 32.8 µM (inactive) | 31.3 µM (inactive) | > 100 µM (inactive) | 23.5 µM (inactive)
COc1cc2c3cc1Oc1c(OC)c(OC)cc4c1C(Cc1ccc(cc1)Oc1cc(ccc1O)CC3N(C)CC2)N(C)CC4 (configuration not stated) | 12.8 µM (inactive) and 17.1 µM (inactive) | 11.1 µM (inactive) and 11.8 µM (inactive) | 8.89 µM (inactive) and 15.1 µM (inactive) | 1.49 µM (inactive) and 1.71 µM (inactive) | 12.1 µM (inactive) and 22.8 µM (inactive) |  | 10.3 µM (inactive) and 8.36 µM (inactive) |  | 11.9 µM (inactive) and 11.4 µM (inactive) |  |  | 4.6 µM (inactive) and 6.76 µM (inactive) | 4.41 µM (inactive) and 5.09 µM (inactive) | 6.64 µM (inactive) | 16.2 µM (inactive) | 4.9 µM (inactive) and 8.28 µM (inactive) | 1.29 µM (inactive) and 1.09 µM (active) | 11.2 µM (inactive) and 9.08 µM (inactive) | 21.7 µM (inactive) and 15.1 µM (inactive) | 14.1 µM (inactive) and 10.8 µM (inactive)
C1=Cc2nccc3cc4c(c(c23)N1)OCO4 | 6.92 µM (inactive) | 6.93 µM (inactive) | 14.1 µM (inactive) | 3.17 µM (inactive) | 14.7 µM (inactive) | 3.55 µM (inactive) | 5.68 µM (inactive) | 3.93 µM (inactive) | 6.73 µM (inactive) | 24 µM (inactive) | 7.08 µM (inactive) | 3.08 µM (inactive) | 1.39 µM (inactive) | 4.53 µM (inactive) | 22.3 µM (inactive) | 6.44 µM (inactive) | 1.64 µM (inactive) | 13.5 µM (inactive) | 4.89 µM (inactive) | 8.13 µM (inactive)
COc1ccc(/C(Cl)=C(\C=O)c2ccc(Cl)c(Cl)c2)cc1OC | 2.9 µM (inactive) | 0.294 µM (active) | 4.63 µM (inactive) | 3.87 µM (inactive) | 19 µM (inactive) | 16.7 µM (inactive) | 4.12 µM (inactive) | 4.02 µM (inactive) |  | 13.4 µM (inactive) | 14.9 µM (inactive) | 4.18 µM (inactive) | 2.24 µM (inactive) | 2.08 µM (inactive) | 2.69 µM (inactive) | 7.33 µM (inactive) |  | 4.34 µM (inactive) | 4.28 µM (inactive) | 3.59 µM (inactive)
C#CC(C)(C)Oc1cc(OC)c2c(=O)c3ccccc3n(C)c2c1 |  | 24.8 µM (inactive) | 7.59 µM (inactive) | 10.7 µM (inactive) | 23.6 µM (inactive) | 14.8 µM (inactive) | 31.9 µM (inactive) | 15.4 µM (inactive) | 10.9 µM (inactive) | 16.2 µM (inactive) | 14.7 µM (inactive) | 17.4 µM (inactive) | 3.85 µM (inactive) | 4.4 µM (inactive) |  | 3.87 µM (inactive) | 25.2 µM (inactive) | 30.3 µM (inactive) | 10 µM (inactive) | 11.6 µM (inactive)
COc1cccc(NC(=O)CC(=O)NNCC(=O)Nc2nnc(-c3ccc(N(CCC#N)S(=O)(=O)c4ccccc4)cc3)s2)c1 | 48.3 µM (inactive) |  | 30.7 µM (inactive) | 37.6 µM (inactive) | > 100 µM (inactive) | 53 µM (inactive) | > 100 µM (inactive) | > 100 µM (inactive) | 63.5 µM (inactive) | 55.7 µM (inactive) | > 100 µM (inactive) | 63.7 µM (inactive) | 35.7 µM (inactive) | 66.4 µM (inactive) | 49.2 µM (inactive) | 47.4 µM (inactive) | 56.4 µM (inactive) | 76.9 µM (inactive) | 89.7 µM (inactive) | 82.4 µM (inactive)
CC1CC(Br)C(=O)O1 (configuration not stated) | > 100 µM (inactive) | 70 µM (inactive) | > 100 µM (inactive) | 47 µM (inactive) | > 100 µM (inactive) | > 100 µM (inactive) | > 100 µM (inactive) | > 100 µM (inactive) | > 100 µM (inactive) | > 100 µM (inactive) | > 100 µM (inactive) | > 100 µM (inactive) | > 100 µM (inactive) | 38.6 µM (inactive) | > 100 µM (inactive) | > 100 µM (inactive) | > 100 µM (inactive) | > 100 µM (inactive) | > 100 µM (inactive) | > 100 µM (inactive)
NNc1nc2ccccc2s1 | > 100 µM (inactive) | > 100 µM (inactive) | > 100 µM (inactive) | > 100 µM (inactive) | > 100 µM (inactive) | > 100 µM (inactive) | > 100 µM (inactive) | > 100 µM (inactive) | > 100 µM (inactive) | > 100 µM (inactive) | > 100 µM (inactive) | > 100 µM (inactive) | 37.3 µM (inactive) | 72.8 µM (inactive) | > 100 µM (inactive) | > 100 µM (inactive) | > 100 µM (inactive) | > 100 µM (inactive) | > 100 µM (inactive) | > 100 µM (inactive)
